Assay [1] deals with normal (wild type, WT) mice. The assay is described as follows: novel object recognition (nOR) paradigm in normal (wild type) mice. It is filed as in vivo, mouse. On the procedure: FIG. 1. Dose-response curve of the effect of M6P, also called IGF2R.L1 (L1) on nOR in normal (wild type, WT) mice. Experimental timeline is shown above graphs. Data are expressed as the mean±s.e.m. N=4 per group. One-way analysis of variance (ANOVA) followed by Bonferroni post-hoc tests. *P<0.05, **P<0.01. WT mice were injected s.c. with vehicle solution or different doses of IGF2R.L1 (L1) 20 min prior to training on nOR. Graphs show percent exploration preference for the novel object compared to the familiar object at testing performed at 4 h and 24 h after training.
(§1) FIG. 2. M6P reverses object recognition memory deficits in a mouse model of Angelman syndrome and enhances memory in WT mice. Experimental timelines are shown above graphs. In all experiments mice received a s.c. injection of vehicle or M6P (↑) 20 min before nOR training or testing. Percent exploration preference for a novel object compared to a familiar object during novel object recognition of WT (Control) and Ube3a−/+(AS) mice injected with vehicle or M6P (labeled as IGF-2R.L1), 20 min before training, tested at 4 h and 24 h after training. N=4/group. All data are expressed as the mean (±s.e.m.). Two-way analysis of variance (ANOVA) followed by Tukey post-hoc tests. *P<0.05, **P<0.01, ***P<0.001.
FIG. 4. An M6P derivative, phosphonate M6P (PnM6P), enhances memory in mice. Experimental timeline is shown above graphs. Mice received a s.c. injection of either vehicle or 850 μg/Kg of phosphonate-M6P (PnM6P) called IGF-2R.L2 (or L2) (↑) 20 min before training. (A) Percent exploration preference for a novel object compared to a familiar object during the nOR paradigm of mice injected with vehicle or L2 20 min before training, and tested at 24 h (Test 1), 5 days (Test 2) and 14 days (Test 3) after training. N=8-10/group. Data are expressed as the % mean±s.e.m. (B). Total time spent exploring both objects during the nOR training session of mice injected with vehicle or L2 20 min before training. N=4 per group. […] Data are expressed in seconds (s). Two-way analysis of variance (ANOVA) followed by Bonferroni post-hoc tests. *P<0.05, **P<0.01, ***P<0.001.
FIG. 5. Comparing M6P (L1) and PnM6P (L2) effects on memory retention: both L1 and L2 similarly enhance nOR in mice. Experimental timeline is shown above graphs. Mice received a s.c. injection of either vehicle or 850 μg/Kg of phosphonate-M6P (PnM6P) called IGF-2R.L2 (or L2) or 850 μg/Kg of M6P (IGF-2R.L1 or L1) (↑) 20 min before training. (A) Percent exploration preference for a novel object compared to a familiar object during the nOR paradigm of mice injected with vehicle, L2 or L1 20 min before training, and tested at 24 h (Test 1), 5 days (Test 2) and 14 days (Test 3) after training. N=4-10/group. Data are expressed as the % mean±s.e.m. (B). Total time spent exploring both objects during the nOR training session of mice injected with vehicle, L2 or L1 20 min before training. N=2-4 per group. […] Data are expressed in seconds (s). Two-way analysis of variance (ANOVA) followed by Bonferroni post-hoc tests. *P<0.05, **P<0.01, ***P<0.001.
FIG. 6. PnM6P (L2) reverses object recognition memory deficits in a mouse model of Angelman syndrome. Experimental timeline is shown above graphs. Mice received a s.c. injection of either vehicle or 850 μg/Kg of phosphonate-M6P (PnM6P) called IGF-2R.L2 (or L2) (↑) 20 min before either training or testing. (A) Percent exploration preference for a novel object compared to a familiar object during the nOR paradigm of wild type (WT served as Control mice) and Ube3a−/+(AS) mice injected with vehicle or L2 before training, and tested at 4 h, 24 h and 5 days (5d) after training. N=4/group. Data are expressed as the % mean±s.e.m. (B). Total time spent exploring the 2 objects during the nOR training session of WT and AS mice injected with vehicle or L2 20 min before training. N=4/per group. […] Data are expressed in seconds (s). […]

The test system of assay [2] is Ube3a-/+ (AS) mice. The assay is described as follows: novel object recognition (nOR) paradigm in mouse model of Angelman syndrome. It counts as in vivo. As to the method: as §1
FIG. 6. PnM6P (L2) reverses object recognition memory deficits in a mouse model of Angelman syndrome. Experimental timeline is shown above graphs. Mice received a s.c. injection of either vehicle or 850 μg/Kg of phosphonate-M6P (PnM6P) called IGF-2R.L2 (or L2) (↑) 20 min before either training or testing. (A) Percent exploration preference for a novel object compared to a familiar object during the nOR paradigm of wild type (WT served as Control mice) and Ube3a−/+(AS) mice injected with vehicle or L2 before training, and tested at 4 h, 24 h and 5 days (5d) after training. N=4/group. Data are expressed as the % mean±s.e.m. (B). Total time spent exploring the 2 objects during the nOR training session of WT and AS mice injected with vehicle or L2 20 min before training. N=4/per group. […] Data are expressed in seconds (s). Two-way analysis of variance (ANOVA) followed by Bonferroni post-hoc tests. *P<0.05, **P<0.01, ***P<0.001.
Specifically, we used the novel object recognition (nOR) paradigm in mice to assess non-aversive episodic memory. In this task, the innate preference for novelty of the rodent is used. During training, the mouse is allowed to explore 2 identical objects. On test day, one of the training objects is replaced with a novel object. Because mice have an innate preference for novelty, if the mouse recognizes the familiar object, it will spend more time at the novel object.

For assay [3], the system named is adult rats. Nature of the assay: inhibitory avoidance (IA) contextual fear memory task, intra-hippocampal injection. It is filed as in vivo, rat. The note with it: for avoidance memory (latency) vs vehicle: bilateral intra-hippocampal injection immediately after training. As to the method:
FIG. 3. M6P injected into the hippocampus of rats enhances memory: dose-response curve. Experimental timeline is shown above graph. Rats received a bilateral intra-hippocampal injection of vehicle or different doses of IGF-2R.L1 (M6P) (↑) immediately after training in the contextual fear memory task inhibitory avoidance (IA). Memory retention was then tested at 24 hours (T1) and 7 days (T2) after training. Testing measured the latency to enter the compartment in which the animals received a foot shock during training. N=12/group. All data are expressed as the mean (±s.e.m.). Two-way repeated measures analysis of variance (ANOVA) followed by Bonferroni post-hoc tests. *P<0.05, **P<0.01, ***P<0.001. […] In these experiments, adult rats were trained in the inhibitory avoidance (IA) paradigm. In this paradigm the animals learn to avoid a chamber paired with a foot-shock.

The mark [4] stands for this setting: WT mice, 850 μg/Kg s.c. 20 min before training, tested 14 days after training.

The structures appear in SMILES notation. “Also recorded” adds a separate entry of the source.

Consider two molecules from US12491203B2, “Use of mannose 6 phosphate and modifications thereof for memory enhancement and reducing memory impairment” (New York University, priority 2018, dated 2025).

Take `O=C[C@@H](O)[C@@H](O)[C@H](O)[C@H](O)COP(=O)(O)O` [L1, mannose-6-phosphate]: in assay [1] (WT control mice, s.c. injection 20 min before training, tested 4 h after training (FIG. 2)), the “nOR memory (exploration preference for novel object) vs vehicle” value is on record as “significant memory enhancement”. Also, the “nOR memory retention vs vehicle” value in assay [1] (WT control mice, s.c. injection 20 min before training, tested 24 h after training (FIG. 2)) is “significantly increased memory retention in both groups”; in assay [1] (setting [4]), “returned to baseline”; in assay [2] (s.c. injection 20 min before training, tested 24 h after training (FIG. 2)), “significantly increased memory retention in both groups”. In addition, the “nOR memory deficit reversal” value in assay [2] (s.c. injection 20 min before training, tested 4 h after training (FIG. 2)) is “reversed memory deficits in AS mice”. Also, the “avoidance memory (latency) vs vehicle” value in assay [3] (retested 6 days later (7 days after training, T2)) was “effect persisted”; in assay [3] (tested 1 day (24 h, T1) after training) it was “significant increase in avoidance memory”. Besides, in assay [3] (bilateral intra-hippocampal injection, different doses), the “dose dependence of memory-enhancing effect” value is on record as “dose dependent”.

Consider `COC1OC(CCP(=O)(OCOC(=O)OC(C)C)OCOC(=O)OC(C)C)C(O)C(O)C1O` [L2, Methyl 6-Deoxy-6-diisopropyloxycarbonyloxy-methyl-phosphinylmethyl-α-D-mannopyranoside], for which the “nOR memory vs vehicle” value was “enhanced memory” in assay [1] (WT mice, 850 μg/Kg s.c. 20 min before training, tested 4 h after training (FIG. 6)) and “significant memory in both groups” in assay [2] (850 μg/Kg s.c. 20 min before training, tested 24 h after training (FIG. 6)). For the same molecule, the “nOR memory retention vs vehicle” value is “significantly increased memory retention at both timepoints; also recorded: significant memory in both groups” in assay [1] (WT mice, 850 μg/Kg s.c. 20 min before training, tested 24 h after training); “significantly increased memory retention at both timepoints” in assay [1] (WT mice, 850 μg/Kg s.c. 20 min before training, tested 5 days after training); “memory enhancement was no longer seen; also recorded: returned to baseline” in assay [1] (setting [4]). For the same molecule, the “nOR memory deficit reversal” value in assay [2] (850 μg/Kg s.c. 20 min before training, tested 4 h after training (FIG. 6)) is on record as “reversed memory deficits in AS mice”.
